{
  "source": "paper PMC10564737",
  "about": "“Structure-based design of a phosphotyrosine-masked covalent ligand targeting the E3 ligase SOCS2” (Nature Communications, 2023)",
  "key": {"[1]": {"target": "T1, HiBiT-SOCS2 fusion in HeLa cells (Homo sapiens, UniProt O14508)", "T1 construct": "encoding SOCS2 (32–198) in pBiT3.1-N expression vector; expressed in transfected cells; host or cells: HeLa", "assay": "Split-NanoLuc CETSA, permeabilised cell format", "assay_type": "cell-based", "description": "One of the challenges with small-molecule binders displaying on-target activity with recombinant proteins, is to translate their utility to a cellular context. […] One of the advantages of CETSA is that target engagement can be monitored without the need for the development of a cell-permeable tracer molecule.\nTo test the cellular activity of MN551, we treated HeLa cells with 50 μM MN551 for 20 h and performed CETSA in a live-cell mode. We observed a small Tagg shift of 2 °C in live mode, which increased to 3–4 °C Tagg shift in the permeabilised format (Fig. 4d). We postulate that this observation could likely be a result of the low cellular permeability of MN551 owing to its negatively charged phosphate group.\nN-terminal HiBiT-SOCS2 fusion was generated by encoding SOCS2 (32–198) in pBiT3.1-N expression vector (Promega). The transfection and target engagement assay were performed by modifying a NanoLuc target engagement protocol (Promega) with some small modifications. Briefly, HiBiT-SOCS2 fusion construct was transfected into HeLa cells using FuGENE HD (Promega) according to the manufacturer’s protocol. HiBiT-SOCS2 fusion construct was diluted into Transfection Carrier DNA (Promega) at a mass ratio of 1:100 or 1:10 for permeabilised and live-cell CETSA respectively. FuGENE HD was added at a ratio of 1:3 (μg DNA: μL FuGENE HD). 1 part (vol) of FuGENE HD complexes thus formed were combined with 20 parts (vol) of HeLa cells suspended at a density of 2 × 10^5 cells/mL, followed by incubation in a humidified, 37 °C + 5% CO2 incubator. After 20 h of incubation HeLa cells were detached and resuspended at a density of 2.5 × 10^5 cells/mL in Opti-MEM media without serum or phenol red but supplemented with protease inhibitor cocktail (Roche). […] Luminescence was recorded with GloMax Discover Microplate Reader (Promega). To generate apparent Tagg curves, the data is first converted to percent stabilized by relating the observed luminescence to the luminescence of the lowest temperature (40 °C) for that given sample. […]"}, "SOCS4-EloBC (SBC4)": {"target": "T2, SOCS4-EloBC (SBC4) (Homo sapiens, UniProt Q8WXH5)", "T2 construct": "SOCS4 (amino acids 274-437); made in house; E. coli implied", "assay": "Intact ESI-MS of recombinant protein, covalent modification", "assay_type": "biochemical", "conditions": "SOCS4 + MN551 (1:1, 40 µM), 0 min", "source_text": "(§1) Having established the specificity of MN551 for covalent modification of Cys111 of SOCS2, we turned our attention to the intra-SOCS family selectivity of MN551. We performed a multiple sequence alignment of the SH2 domains from all the SOCS proteins (Fig. 3a). The Cys111 targeted by MN551 for covalency is part of the EF loop in SOCS2. Beyond SOCS2, other family members SOCS4, SOCS5, SOCS7, and CISH also have a cysteine in the same loop (Fig. 3a), and given the expected conserved ligand binding mode, they could all be engaged by MN551. To verify our hypothesis, we incubated recombinant SOCS/EloBC complexes of SOCS4 (SBC4), SOCS6 (SBC6), and CISH with MN551 for 2 h and analyzed for covalent modification of the SOCS proteins by intact ESI-MS (Fig. 3b–d). These proteins were chosen as SOCS4 and SOCS6 are already structurally well characterized, and because SOCS4 Cys350, and CISH Cys144 are in a similar position as Cys111 in SOCS2, whereas SOCS6 is lacking cysteines in the EF loop[36]–[38]. […] Although SOCS6 lacks a cysteine in its EF loop, Cys471 from the BG loop is predicted to be in close proximity to the chloroacetamide functional group of MN551, as evident from the superposed SOCS2 and SOCS6 structures, potentially explaining the modification, albeit minimal (Fig. 3f). Structure-guided improvements upon this observed MN551-SOCS6 covalency could expedite future attempts in development of covalent binders for SOCS6. In the absence of a PDB structure for CISH, we overlayed SOCS2-SH2 domain with an AlphaFold model generated for the CISH SH2 domain with deletions in the N-terminus and the PEST sequence (66-258, Δ174-202, Fig. 3g). Amongst all the SOCSs, CISH has the highest sequence identity to SOCS2-SH2 and the presence of a conserved Cys144 in the EF loop together likely explain its complete covalent modification by MN551.\n(§2) SBC2 protein (40 µM), SBC2 C111S, SBC4, SBC6, or CISH were incubated with an equimolar concentration of MN551 in 50 mM Tris, pH 8.0, 50 mM NaCl, 1 mM TCEP. At defined time points 20 µl samples were removed and the protein precipitated by the addition of 80 µl methanol. The precipitated protein was pelleted by centrifugation, washed with 500 µl methanol, and resuspended in an aqueous solution of 15% acetonitrile and 1% TFA. Samples were separated by HPLC on a C3 column using a 10–75% gradient of acetonitrile and analyzed using an Agilent 6130 quadrupole MS. Spectra were deconvoluted and integrated using Agilent LC/MSD ChemStation."}, "CISH-EloBC": {"target": "T3, CISH-EloBC (Homo sapiens, UniProt Q9NSE2, DEL174-202)", "T3 construct": "CISH (66-258 Δ174-202) was codon-optimized for bacterial expression; GST (from pGEX-6P-1); made in house; host or cells: E. coli BL21(DE3)", "assay": "Intact ESI-MS of recombinant protein, covalent modification", "assay_type": "biochemical", "conditions": "CISH + MN551 (1:1, 40 µM), 0 min", "source_text": "as §1, §2"}},
  "note": "Values joined by “and” are separate entries in the source; they are usually repeats but may differ in a detail not shown here. Equal values may be shown once. Read-outs that look alike come from different tables or passages of the source.",
  "data": [
    {"smiles": "O=C(CCl)Nc1cccc(CNC(=O)[C@H](Cc2ccc(OP(=O)(O)O)cc2)NC(=O)Cc2ccc(F)cc2)c1", "note": "[MN551]", "values": [
      {"measurement": "EC50", "setting": "[1]; MN551 CETSA dose response, Mean, read-out: EC50", "result": 1.01, "unit": "µM"},
      {"measurement": "EC50", "setting": "[1]; MN551 CETSA dose response, single replicates, read-out: EC50, individual replicates n1-n2", "result": "0.755 µM and 1.26 µM"},
      {"measurement": "EC50", "setting": "[1]; permeabilised CETSA, 1 hr, mean ± SEM, n = 2, read-out: EC50 of Tagg shift", "result": "1 ± 0.25", "unit": "µM"},
      {"measurement": "% modified", "setting": "SOCS4-EloBC (SBC4)", "result": 0.0, "unit": "%"},
      {"measurement": "% modified", "setting": "CISH-EloBC", "result": 0.0, "unit": "%"}
    ]}
  ]
}
